Measurements published in patent US20030195191A1, “N-sulfonyl hydroxamic acid derivatives as inhibitors of cd23” (priority 2000, published 2003).

Biological target: T1, human recombinant collagenase (Homo sapiens, UniProt P03956)
T1 construct: made in house; host or cells: E. coli
T1 sequence (P03956 100-469): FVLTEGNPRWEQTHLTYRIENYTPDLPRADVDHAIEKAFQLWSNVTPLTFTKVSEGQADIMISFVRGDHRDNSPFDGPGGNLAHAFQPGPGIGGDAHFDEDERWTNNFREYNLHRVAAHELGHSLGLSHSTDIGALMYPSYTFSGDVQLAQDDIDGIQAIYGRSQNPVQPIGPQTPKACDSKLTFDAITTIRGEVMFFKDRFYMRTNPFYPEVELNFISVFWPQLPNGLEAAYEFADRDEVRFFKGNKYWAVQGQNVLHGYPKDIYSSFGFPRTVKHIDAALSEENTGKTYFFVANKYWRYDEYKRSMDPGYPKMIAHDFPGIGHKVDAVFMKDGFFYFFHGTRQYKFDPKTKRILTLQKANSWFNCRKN
Assay: Collagenase inhibition assay
Assay type: biochemical
Settings: 37° C., 18 h, acetylated 3H type 1 bovine collagen
Method: Procedure 2: The Ability of Test Compounds to Inhibit Collagenase was Investigated Using the Following Procedure.
Collagenase Inhibition Assay:
The potency of compounds to act as inhibitors of collagenase was determined by the method of Cawston and Barrett (Anal. Biochem. 99, 340-345, 1979), hereby incorporated by reference, whereby a 1 mM solution of the inhibitor being tested or dilutions thereof, was incubated at 37° C. for 18 h with collagen and human recombinant collagenase, from synovial fibroblasts cloned, expressed and purified from E. Coli, (buffered with 150 mM Tris, pH 7.6, containing 15 mM calcium chloride, 0.05% Brij 35, 200 mM sodium chloride and 0.02% sodium azide). The collagen was acetylated ^3H type 1 bovine collagen prepared by the method of Cawston and Murphy (methods in Enzymology 80, 711,1981) The samples were centrifuged to sediment undigested collagen and an aliquot of the radioactive supernatant removed for assay on a scintillation counter as a measure of hydrolysis. The collagenase activity in the presence of 1 mM inhibitor, or dilution thereof, was compared to activity in a control devoid of inhibitor and the results reported as that concentration effecting 50% of the collagenase (IC50).

IC50: > 10 µM
SMILES: O=C(NO)[C@H]1CCCCN1S(=O)(=O)Cc1ccc2ccccc2c1 [Example 2, (R)-1-(Naphthalen-2-ylmethanesulfonyl)piperidine-2-carboxylic Acid N-hydroxyamide]
